Source: patent US20250357519A1, “APPLICATIONS OF O2-INSENSITIVE FORMATE DEHYDROGENASE” (UNIVERSITY OF MARYLAND, BALTIMORE, priority 2022, published 2025)
Where two headings read alike, the source gives them in different places.

Experiments:
[1] = test system: Desulfovibrio gigas (Dg) W-FDH1, wild-type natively-purified (W-FDH1^WT); conditions: pH 8.0, 37 °C, 7.5 mM BV, 35 nM enzyme; Mota (2011); cited from earlier work
[2] = test system: Desulfovibrio vulgaris Hildenborough (DvH) W-FDH1, wild-type natively-purified (W-FDH1^WT), large subunit DVU0587 SEQ ID NO: 29, small subunit DVU0588 SEQ ID …; conditions: pH 7.6, RT, 2 mM BV, cited from earlier work
[3] = test system: Desulfovibrio vulgaris Hildenborough (DvH) FDH2, wild-type natively-purified (FDH2^WT), large subunit DVU2482 SEQ ID NO: 31, small subunit DVU2481 SEQ ID NO: …; conditions: cited from earlier work
[4] = test system: Desulfovibrio vulgaris Hildenborough (DvH) Mo-FDH3, wild-type natively-purified (Mo-FDH3^WT); conditions: pH 7.6, RT, 2 mM BV, 0.25 nM enzyme; Da Silva et al (2011); cited from earlier work
[5] = target: T1, Desulfovibrio vulgaris Hildenborough (DvH) FDH2, recombinant Strep-tag II-tagged (FDH2^Rec), large subunit DVU2482 SEQ ID NO: 31, small subunit DVU2481 SEQ ID N (Nitratidesulfovibrio vulgaris, UniProt Q728X0); test: PES/DCPIP assay of formate oxidation
T1 sequence (Q728X0 36-1003): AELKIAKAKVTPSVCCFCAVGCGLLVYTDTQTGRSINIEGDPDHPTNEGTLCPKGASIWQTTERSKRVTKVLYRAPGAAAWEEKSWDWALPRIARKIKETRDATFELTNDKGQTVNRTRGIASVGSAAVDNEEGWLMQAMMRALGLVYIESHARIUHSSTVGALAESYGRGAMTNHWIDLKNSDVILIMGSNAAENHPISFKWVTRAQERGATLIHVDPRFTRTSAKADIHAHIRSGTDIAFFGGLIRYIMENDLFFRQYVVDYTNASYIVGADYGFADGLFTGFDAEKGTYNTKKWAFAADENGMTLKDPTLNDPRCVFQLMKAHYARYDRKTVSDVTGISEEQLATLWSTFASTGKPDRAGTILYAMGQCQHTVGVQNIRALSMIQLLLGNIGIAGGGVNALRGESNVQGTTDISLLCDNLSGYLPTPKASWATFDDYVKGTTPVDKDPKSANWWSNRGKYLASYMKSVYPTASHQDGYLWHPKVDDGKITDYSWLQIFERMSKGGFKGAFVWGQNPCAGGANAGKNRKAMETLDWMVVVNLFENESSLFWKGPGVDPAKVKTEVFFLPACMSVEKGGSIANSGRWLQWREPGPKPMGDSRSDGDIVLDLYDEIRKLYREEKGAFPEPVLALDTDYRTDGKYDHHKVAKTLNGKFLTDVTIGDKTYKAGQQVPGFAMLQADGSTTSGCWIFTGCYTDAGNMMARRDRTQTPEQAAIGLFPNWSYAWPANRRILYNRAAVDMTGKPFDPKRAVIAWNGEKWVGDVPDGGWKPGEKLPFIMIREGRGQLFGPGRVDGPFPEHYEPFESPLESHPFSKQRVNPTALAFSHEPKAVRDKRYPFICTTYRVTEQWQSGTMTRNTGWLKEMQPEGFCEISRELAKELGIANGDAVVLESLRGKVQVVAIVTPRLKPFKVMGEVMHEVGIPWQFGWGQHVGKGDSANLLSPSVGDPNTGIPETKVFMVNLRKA
T1 sequence (Q728X1 1-260 partner): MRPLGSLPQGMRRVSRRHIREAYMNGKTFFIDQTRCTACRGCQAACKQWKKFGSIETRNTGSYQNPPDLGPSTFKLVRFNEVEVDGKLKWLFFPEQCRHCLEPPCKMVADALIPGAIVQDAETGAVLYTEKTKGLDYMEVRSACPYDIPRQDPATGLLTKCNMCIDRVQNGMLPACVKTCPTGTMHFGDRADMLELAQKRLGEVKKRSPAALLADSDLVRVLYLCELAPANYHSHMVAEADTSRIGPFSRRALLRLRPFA

[6] = target: T1, Desulfovibrio vulgaris Hildenborough (DvH) FDH2, recombinant Strep-tag II-tagged (FDH2^Rec), large subunit DVU2482 SEQ ID NO: 31, small subunit DVU2481 SEQ ID N; test: Benzyl viologen (BV) assay of formate oxidation
[7] = 0.0124 nM enzyme, Da Silva et al (2011)
[8] = BV (2 mM), anaerobic, 1 replicate, da Silva et al (2011), Table 4
[9] = pH 7.6, RT, 2 mM BV, 0.48 nM enzyme, Da Silva et al (2011)

## O=CO [formate]
[1]
  Km: 51 µM
  kcat: 174 s⁻¹
[2]; [7]
  Km: 1 µM
  kcat: 3684 s⁻¹
[2]; 1.4 nM enzyme, Oliveira et al (2020)
  kcat: 1104 ± 62 s⁻¹
[3]; [8]
  Km: 4 µM
  kcat: 81 s⁻¹
[3]; [9]
  Km: 4 µM
  kcat: 81 s⁻¹
[4]
  Km: 8 µM
  kcat: 262 s⁻¹
[5]; DCPIP (air), full progress curve global fit
  kcat: 354 ± 5 s⁻¹
[5]; DCPIP (anaerobic), full progress curve global fit
  kcat: 258 ± 3 s⁻¹
[5]; PES/DCPIP, air, initial velocities, 10 replicates, pH 8.0
  kcat: 317 ± 14 s⁻¹
[5]; PES/DCPIP, anaerobic full-progress curves vs 2 mM BV
  TN (kcat) relative to that obtained with 2 mM BV: ~5 fold
[5]; PES/DCPIP, anaerobic, initial velocities, 5 replicates, pH 8.0
  kcat: 220 ± 5 s⁻¹
[5]; PES/DCPIP, comparator with NAD^+ as acceptor (ref 40)
  TN (kcat) for formate oxidation relative to Mo-Cys-FDH from Rhodobacter capsulatus: roughly an order of magnitude
[5]; general statement, 1.6 nM enzyme, formate 0 to 100 μM
  binding constant (Km) for formate: low micromolar range
[6]; 2 mM BV (anaerobic), full progress curve global fit
  kcat: 47 ± 2 s⁻¹
[6]; BV (2 mM), anaerobic, initial velocities, 3 replicates, pH 8.0, 25 °C
  kcat: 68 ± 5 s⁻¹
[6]; BV (20 mM), anaerobic, initial velocities, 3 replicates, pH 8.0, 25 °C
  kcat: 111 ± 16 s⁻¹
